Entries after “also recorded” stand apart in the source; their conditions may differ. Marks after values point to notes of the source that are not given here. l = locked nucleic acid (LNA); d = 2'-deoxy (DNA)
Tests used:
miR-328 = assay: In vitro inhibition of miR-328 expression by antisense oligonucleotides transfected into ARPE-19 RPE cells (qRT-PCR, normalized to U6); format: cell-based, human; settings: for inhibitory effect on miR-328 expression: RPE cells (ARPE-19), Lipofectamine 2000 transfection, 24 hours; for inhibition of miR-328 expression in vitro (in words): RPE cells, 30, 50 and 100 nM
Experimental: Cell Culture, Treatments, and Transfection
An RPE cell line called “ARPE-19” was grown in Dulbecco's modified Eagle's medium (DMEM)/F12 medium. The cell line was grown with 1% penicillin/streptomycin and 10% heat-inactivated fetal bovine serum (FBS) at 37° C. in a humidified atmosphere of 95% air/[…] carbon dioxide (CO2). To conduct the transfection experiments, cells were seeded into a 12-well plate at a density of 1×10^5 cells/well. After achieving 70% confluence in a well, antisense oligonucleotides (concentrations of 30, 50 and 100 nM) were transfected with Lipofectamine 2000 (Invitrogen) according to the manufacturer's instructions. After 24 hours of incubation, cells were lysed for further studies.
Detect the Inhibition of miR-328 Expression by Antisense Oligonucleotides
Total RNA was extracted from cultured cells using Trizol according to the manufacturer's instructions. RNA purity was checked using A260/A280 readings. miR-328 was first reversed transcribed to miR-328 cDNA using the following procedure: 5 ng of RNA was reverse transcribed with miR-328 specific primer and MultiScribe reverse transcriptase kit (Applied Biosystems). To measure the miR-328 expression, quantitative real-time PCR was performed on an ABI 7500 real-time PCR machine (Applied Biosystems) with miR-328 specific probe according to manufacturer's instructions (Applied Biosystems). The inhibitory effect by antisense oligonucleotides was evaluated by measuring the level of miR-328 cDNA by quantitative real-time PCR. The expression level of miR-328 was normalized to that of a small non-coding nuclear RNA U6 as the internal control.

[1] = tested on: myopia-induced C57BL/6J mice; assay: Example 5: validation of DNA 16mer and LNA 403 versus atropine in myopia-induced mice; format: in vivo; settings: for Mean of delta AXL: right eye covered 4 weeks, 30 μL on day 30, 37 and 44, day 51
Experimental: (§1) The 21 days old C57BL/6J mice were purchased from the National Laboratory Animal Center, Taiwan. All animal experiments were in compliance with the ARVO Statement for the Use of Animals in Ophthalmic and Vision Research. The procedure of myopia induction is described briefly as the following: Right eyes of the 23 days old mice were covered for 4 weeks to induce myopia (i.e. nearsightedness) and the left eyes were uncovered. Then the right eyes of the myopia-induced mice were treated with 30 μL of saline (i.e. negative control group), 1% atropine (i.e. positive control group), DNA16mer or LNA403 at 1 μM on 30th, 37th and 44th day. Mice were sacrificed on 51th day and the eyes were collected. The isolated eyes were photographed under a dissection microscope and the axial lengths were measured using imageJ and a proprietary software for automatic measure. Myopia (nearsightedness) causes elongation of axial length, which is the major pathological change in myopia. The difference of axial length (i.e. delta axial length) between the covered right eye and the non-covered left eye of the same mouse indicates the severity of myopia. Statistical evaluation was done by using Mann-Whitney U test. Analysis with p-values <0.05 being considered significant.

[2] = tested on: myopia-induced C57BL/6J mice; assay: Example 4: efficacy in myopia-induced mice, delta axial length; format: in vivo; settings: for reduction of delta axial length compared to control group: 1 μM on day 30, 37 and 44, versus saline; for activity in treating myopia in mice (in words) / Delta axial length, mm mean (SD) / average delta axial length compared with control animals (in words): 1 μM; for activity in treating myopia in mice (in words): decrease of average axial length; for Delta axial length, mm mean (SD): right (myopia) minus left eye, 30 μL to right eye on day 30, 37 and 44, eyes collected day 51; for average delta axial length compared with control animals (in words): versus saline, Mann-Whitney U test
Experimental: as §1, with “covered” for “covered for 4 weeks”, “(i.e.” for “(i.e. negative”, “DNA16mer, DNA17mer, LNA403, LNA404,” for “1% atropine (i.e. positive control group), DNA16mer”, “LNA405,” for “LNA403”, “[…]” for “imageJ and a proprietary software for automatic measure.”, “p-values<0.05” for “p-values <0.05”

Safety in animal studies = format: in vivo
myopic pigmented rabbits = assay: Example 7: DNA 16mer in myopic pigmented rabbits, delta axial length by A-scan; format: in vivo, rabbit; settings: 20 μL to right eye every other day from day 35, AXL of day 61
Experimental: The procedure of myopia induction: The 3 days old pigmented rabbits were purchased from the DA-ZONG livestock farm, Taiwan. All animal experiments were in compliance with the ARVO Statement for the Use of Animals in Ophthalmic and Vision Research. On the age of 7 days, the right eye of the rabbit was covered for 8 weeks to induce myopia, and the left eye left uncovered. The axial lengths (AXL) of both eyes were measured by A-scan (Sonomed®, PACSCAN 300A, USA) once a week since day 21. We defined myopia as right eye AXL is longer than left eye AXL by 0.2 mm or longer on day 35. If a rabbit reached this defined criterion, the right eye of such a myopic rabbit was treated with […], of saline (i.e. control group) or DNA16mer (20 μL) at 10 μM or 50 uM every other day since day 35 till day 63. The final AXL measured on day 61 was used to obtain to calculate the difference between right AXL and left AXL (i.e. delta AXL). If there is no therapeutic effect, the delta AXL will be a positive value.

[3] = tested on: myopia-induced C57BL/6J mice; assay: Example 6: confirmation of DNA 16mer by a CRO in myopia-induced mice; format: in vivo; settings: for left eye axial, mm Mean: left eye uncovered
From the text: The procedure of myopia induction is: The 21 days old C57BL/6J mice were purchased from the National Laboratory Animal Center, Taiwan. All animal experiments were in compliance with the ARVO Statement for the Use of Animals in Ophthalmic and Vision Research. The procedure of myopia induction is described briefly as the following: Right eyes of the 23 days old mice were covered for 4 weeks to induce myopia and the left eyes were uncovered. Then the right eyes of the myopia-induced mice were treated with […], of saline (i.e. negative control group), 1% atropine (i.e. positive control group), 10 nM, 100 nM, and 1 μM of DNA 16mer on 30th, 37th and 44th day. Mice were sacrificed on 51th day and the eyes were collected. The isolated eyes were photographed under a dissection microscope and the axial lengths were measured using imageJ and a proprietary software for automatic measure. Myopia (nearsightedness) causes elongation of axial length, which is the major pathological change in myopia. The difference of axial length (i.e. delta axial length) between the covered right eye and the non-covered left eye of the same mouse indicates the severity of myopia.

5′-+C*+G*+G*+A*A*G*G*G*C*A*G*A*G*A*G*G*+G*+C*+C*+A-3′ (antisense CGGAAGGGCAGAGAGGGCCA; sugars from the 5' end l4 d12 l4, all phosphorothioate, methylation of C not given here) [LNA403, LNA-modified and PS bond-modified anti-sense miR-328 oligonucleotide, 20 mer]
inhibitory effect on miR-328 expression (miR-328; 30 nM): 97% | inhibitory effect on miR-328 expression (miR-328; 50 nM): 97% | inhibitory effect on miR-328 expression (miR-328; 100 nM): 90% | inhibition of miR-328 expression in vitro (in words) (miR-328): inhibited | efficacy in reducing elongation of eyeball compared with 1% atropine (in words) ([1]; 1 μM): more effective than 1% atropine | Mean of delta AXL ([1]; 1 μM): −0.052 | reduction of delta axial length compared to control group [2]: 0.054 mm | activity in treating myopia in mice (in words) [2]: effective in treating myopia in mice | activity in treating myopia in mice (in words) ([2]; listed as 403): exhibited an activity for treating myopia | Delta axial length, mm mean (SD) [2]: −0.036 (0.079)* mm

5′-+G*+A*+A*+G*G*G*C*A*G*A*G*A*G*G*+G*+C*+C*+A-3′ (antisense GAAGGGCAGAGAGGGCCA; sugars from the 5' end l4 d10 l4, all phosphorothioate, methylation of C not given here) [LNA405, LNA-modified and PS bond-modified anti-sense miR-328 oligonucleotide, 18 mer]
inhibitory effect on miR-328 expression (miR-328; 30 nM): 98% | inhibitory effect on miR-328 expression (miR-328; 50 nM): 98% | inhibitory effect on miR-328 expression (miR-328; 100 nM): 99% | inhibition of miR-328 expression in vitro (in words) (miR-328): inhibited | reduction of delta axial length compared to control group [2]: 0.035 mm | Delta axial length, mm mean (SD) [2]: −0.017 (0.054) mm

5′-+G*+G*+A*+A*G*G*G*C*A*G*A*G*A*G*G*+G*+C*+C*+A-3′ (antisense GGAAGGGCAGAGAGGGCCA; sugars from the 5' end l4 d11 l4, all phosphorothioate, methylation of C not given here) [LNA404, LNA-modified and PS bond-modified anti-sense miR-328 oligonucleotide, 19 mer]
inhibitory effect on miR-328 expression (miR-328; 30 nM): 98% | inhibitory effect on miR-328 expression (miR-328; 50 nM): 98% | inhibitory effect on miR-328 expression (miR-328; 100 nM): 99% | inhibition of miR-328 expression in vitro (in words) (miR-328): inhibited | reduction of delta axial length compared to control group [2]: 0.025 mm | Delta axial length, mm mean (SD) [2]: −0.007 (0.100) mm

5′-AAGGGCAGAGAGGGCCA-3′ (DNA, backbone not given here) [DNA 17mer, anti-sense miR-328 oligodeoxyribonucleotide]
inhibitory effect on miR-328 expression (miR-328; 30 nM): 43% | inhibitory effect on miR-328 expression (miR-328; 50 nM): 41% | inhibitory effect on miR-328 expression (miR-328; 100 nM): 48% | inhibition of miR-328 expression in vitro (in words) (miR-328): inhibited | safety in animal studies (in words) (Safety in animal studies): safe | reduction of delta axial length compared to control group [2]: 0.065 mm | activity in treating myopia in mice (in words) ([2]; listed as 17mer): exhibited an activity for treating myopia | activity in treating myopia in mice (in words) ([2]; listed as DNA17mer): effective in treating myopia in mice | average delta axial length compared with control animals (in words) [2]: statistically significantly smaller | Delta axial length, mm mean (SD) [2]: −0.047 (0.073)* mm

5′-AGGGCAGAGAGGGCCA-3′ (DNA, backbone not given here) [DNA 16mer, anti-sense miR-328 oligodeoxyribonucleotide]
inhibitory effect on miR-328 expression (miR-328; 30 nM): 39% | inhibitory effect on miR-328 expression (miR-328; 50 nM): 35% | inhibitory effect on miR-328 expression (miR-328; 100 nM): 49% | inhibition of miR-328 expression in vitro (in words) (miR-328): inhibited | safety in animal studies (in words) (Safety in animal studies): safe | efficacy in reducing elongation of eyeball compared with 1% atropine (in words) ([1]; 1 μM): more effective than 1% atropine | Mean of delta AXL ([1]; 1 μM): −0.055 | Delta axial length Mean (myopic pigmented rabbits; 10 μM): −0.234 | Delta axial length Mean (myopic pigmented rabbits; 50 μM): −0.370 | reduction of delta axial length compared to control group [2]: 0.077 mm | activity in treating myopia in mice (in words) ([2]; listed as 16mer): exhibited an activity for treating myopia | activity in treating myopia in mice (in words) ([2]; listed as DNA16mer): effective in treating myopia in mice | average delta axial length compared with control animals (in words) [2]: statistically significantly smaller | Delta axial length, mm mean (SD) [2]: −0.059 (0.061)* mm | Delta axial length Mean ([3]; 10 nM): −0.056 | right eye axial, mm Mean ([3]; 10 nM to right (myopia) eye): 3.083 mm | left eye axial, mm Mean ([3]; 10 nM to right eye): 3.139 mm | Delta axial length Mean ([3]; 100 nM): −0.069 | right eye axial, mm Mean ([3]; 100 nM to right (myopia) eye): 3.023 mm | left eye axial, mm Mean ([3]; 100 nM to right eye): 3.092 mm | Delta axial length Mean ([3]; 1 μM): −0.058 | right eye axial, mm Mean ([3]; 1 μM to right (myopia) eye): 3.052 mm | left eye axial, mm Mean ([3]; 1 μM to right eye): 3.110 mm

5′-GGGCAGAGAGGGCCA-3′ (DNA, backbone not given here) [15mer, anti-sense miR-328 oligodeoxyribonucleotide]
inhibition of miR-328 expression in vitro (in words) (miR-328): did not show any activity; also recorded: no inhibitory effect

CN1[C@@H]2CC[C@H]1C[C@@H](OC(=O)C(CO)c1ccccc1)C2 (stereo partly drawn) [Atropine, atropine, reference compound]
Mean of delta AXL ([1]; 1% atropine): −0.037 | Delta axial length Mean ([3]; 1% atropine): −0.060 | right eye axial, mm Mean ([3]; 1% atropine to right (myopia) eye): 3.049 mm | left eye axial, mm Mean ([3]; 1% atropine to right eye): 3.108 mm

— patent publication US10179913B2, “MicroRNA-328 anti-sense composition and therapeutic use” (KAOHSIUNG MEDICAL UNIVERSITY, priority 2015, dated 2019)
